Assay results taken from patent US20220133753A1, “COMPOSITIONS AND METHODS USEFUL FOR TREATING DISEASES CHARACTERIZED BY INSUFFICIENT PANTOTHENATE KINASE ACTIVITY” (Comet Therapeutics, Inc., priority 2016, published 2022).
Entries after “also recorded” stand apart in the source; their conditions may differ.

Assays:
[1] = tested on: homozygous dPANK/fbl1 and dPANK/fblnull mutants; assay: Drosophila dPANK/fbl mutants, lifespan and development with CoA or Vitamin B5 in the food; assay type: in vivo, Drosophila melanogaster; conditions: CoA added to the food
Experimental: Drosophila Maintenance and Crosses: Drosophila melanogaster stocks/crosses were raised on standard cornmeal agar fly food (containing water, agar 17 g/L, sugar 54 g/L, yeast extract 26 g/L and nipagin 1.3 g/L) at 25° C. The stocks were either obtained from the Bloomington Stock Centre (Indiana University, USA), VDRC (Vienna Drosophila RNAi Collection, Vienna, Austria) or from the Exelixis Collection (Harvard Medical School) and rebalanced to generate eGFP-positive balancers. The stocks used were: w1118; dPANK/fbl1 hypomorph5,6; dPANK/fblnull (y[1] w[*]; Mi{y[+mDint2]=MIC}fbl[MI04001]/TM3, Sb[1] Ser[1], Bloomington 36941); dPPCDC mutant (w[1118], PBac{w[+mC]=WH}Ppcdc[f00839]/CyO, Bloomington 18377); UAS-dPPCDCRNAi line (VDRC 104495); dCOASY mutant (PBac{RB}Ppat-Dpck[e00492], Exelixis). The UAS-RNAi constructs were expressed ubiquitously using the Actin-Gal4 drivers (y[1] w[*]; P{w[+mC]=Act5C-GAL4}25FO1/CyO, y[+], Bloomington 4414). […]
Drosophila Life Span: One-day old adults of Drosophila homozygous mutants or RNAi-constructs expressing lines, were collected with appropriate controls and were kept on standard fly food at 25° C. with or without CoA or Vitamin B5 (Sigma) at necessary concentration (50 ul added on top of the fly food and dried). The flies were counted every 12-24 hrs and flipped to new fly food vials with or without CoA or Vitamin B5.

[2] = Mice CoA intravenous injection study; assay type: in vivo, mouse; conditions: i.v.
Experimental: Sample preparation for mass spectrometry and instrumental parameters: Samples were briefly washed with ice-cold PBS solution. Samples were then sonicated thoroughly in 100 μl ice-cold milliQ (MQ) water containing 50 mM Tris(2-carboxyethyl)phosphine hydrochloride. Subsequently 100 ul saturated ammonium sulfate was added to each sample and centrifuged for 20 min at 10° C., 16100 rcf to collect supernatant. To 150 μl of supernatant, 15 ul of ammonium hydroxide (12.5%) was added and 20 μl was injected for LC-MS (liquid chromatography-mass spectrometry) analysis. For mouse plasma analysis, 50 ul of MQ water containing 50 mM Tris (2-carboxyethyl)phosphine hydrochloride was added to 50 ul of plasma and processed further as mentioned above. Appropriate dilution series of standard CoA, PPanSH and PPanSH(D4) was processed similarly before analysis. […] The flow was maintained at 1 ml/min with optimized mobile phase gradient of MQ water (A), 200 mM NH4Ac in 95/5 MQ water/acetonitrile adjusted to pH 4.5 with acetic acid (B), and acetonitrile (C). The separated analytes were detected with positive mode mass spectrometry under unit resolution. […] The absolute concentration was finally calculated using linear regression analysis of respective standard compounds, except CoA(D4) which was estimated indirectly using CoA standards. […]

[3] = tested on: C. elegans pantothenate kinase (pnk-1) mutants; assay: C. elegans pnk-1 mutant motility and lifespan with CoA in the food; assay type: in vivo, Caenorhabditis elegans; conditions: CoA added to the food
Experimental: C. elegans Media and Strains: Standard culturing conditions were used for C. elegans maintenance at 20° C. N2 strain was used as a wild-type control. VC927, the PANK deletion mutant pnk-1 (ok1435)I/hT2[bli-4(e937) let-? (q782)qIs48](I; III), was obtained from the Caenorhabditis Genetics Center. To obtain synchronous cultures, worms were bleached with hypochlorite, and allowed to hatch in M9 buffer (3 g KH2PO4, 6 g Na2HPO4, 5 g NaCl, 1 ml 1 M MgSO4, H2O to 1 liter) overnight and cultured on standard Nematode Growth Medium (NGM) plates seeded with OP50 strain of Escherichia coli.
C. elegans Motility Assay: After synchronization, L1 C. elegans were grown on control NMG plates or NGM plates containing various concentrations of CoA. One-day old adults were placed in a drop of M9 buffer and allowed to recover for 30 sec. During the following 30 sec, the number of body bends was counted. A movement was scored as a bend when both the anterior and posterior ends of the animal turned to the same side. At least 15 worms were scored per condition and each experiment was repeated thrice.

CC(C)(COP(=O)(O)OP(=O)(O)OC[C@H]1O[C@@H](n2cnc3c(N)ncnc32)[C@H](O)[C@@H]1OP(=O)(O)O)[C@@H](O)C(=O)NCCC(=O)NCCS [CoA, Coenzyme A]
lifespan with CoA ([1]; homozygous dPANK/fbl1 mutants, from 20 days without): 40 days | development with CoA ([1]; homozygous dPANK/fblnull mutants): extended development from the L2 stage to early pupal development | conversion of injected CoA in plasma ([2]; 30 minutes, HPLC): rapidly converted to 4′-phosphopantetheine | 4′-phosphopantetheine in plasma after CoA injection ([2]; 6 hrs, mass spectrometry): elevated levels of PpanSH; also recorded: still present | CoA, share of the initial concentration still present (3 h): > 95% | conversion of CoA in serum (bovine (fetal calf)): converted into 4′-phosphopantetheine | CoA degraded (bovine (fetal calf), 30 min): 90% | lifespan of pnk-1 mutants [3]: improved these phenotypes significantly | motility of pnk-1 mutants [3]: improved these phenotypes significantly
